Measurements from BindingDB's records for doi:10.1021/acschembio.5b00514 (Technische Universität München, 2015).

How the values were obtained:
Test in all cases: Activity-based Protein Profiling (ABPP)
Conditions in all cases: pH 7.4; 37 °C
Rhomboid protease AarA = molecular target: T1, Rhomboid protease AarA (Providencia stuartii, UniProt P46116)
T1 sequence (P46116 whole entry): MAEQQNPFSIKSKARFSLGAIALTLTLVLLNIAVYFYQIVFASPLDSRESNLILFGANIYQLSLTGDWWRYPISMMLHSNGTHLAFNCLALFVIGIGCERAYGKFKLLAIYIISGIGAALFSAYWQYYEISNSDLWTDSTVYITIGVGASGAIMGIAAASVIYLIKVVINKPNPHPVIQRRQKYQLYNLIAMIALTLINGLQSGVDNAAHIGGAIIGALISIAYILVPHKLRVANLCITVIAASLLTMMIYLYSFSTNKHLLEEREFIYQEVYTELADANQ
Text: (§1) We selected several inhibitor structures and determined their apparent IC50 by competitive ABPP.

[1] = molecular target: T2, Rhomboid-related protein 1 (Mus musculus, UniProt Q8VC82)
T2 sequence (Q8VC82 whole entry): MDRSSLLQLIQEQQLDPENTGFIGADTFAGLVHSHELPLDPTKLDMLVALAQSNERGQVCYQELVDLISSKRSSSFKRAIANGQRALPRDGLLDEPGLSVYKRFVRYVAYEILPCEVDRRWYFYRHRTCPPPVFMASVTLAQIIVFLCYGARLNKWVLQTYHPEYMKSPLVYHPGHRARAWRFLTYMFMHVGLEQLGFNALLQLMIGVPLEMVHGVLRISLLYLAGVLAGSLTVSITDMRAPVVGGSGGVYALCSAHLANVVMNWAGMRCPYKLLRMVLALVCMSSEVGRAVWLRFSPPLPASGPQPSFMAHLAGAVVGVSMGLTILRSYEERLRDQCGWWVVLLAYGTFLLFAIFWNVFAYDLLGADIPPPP
Text: as §1

GlpG protein = molecular target: T3, GlpG protein (Vibrio cholerae, UniProt Q9KVP2)
T3 sequence (Q9KVP2 whole entry): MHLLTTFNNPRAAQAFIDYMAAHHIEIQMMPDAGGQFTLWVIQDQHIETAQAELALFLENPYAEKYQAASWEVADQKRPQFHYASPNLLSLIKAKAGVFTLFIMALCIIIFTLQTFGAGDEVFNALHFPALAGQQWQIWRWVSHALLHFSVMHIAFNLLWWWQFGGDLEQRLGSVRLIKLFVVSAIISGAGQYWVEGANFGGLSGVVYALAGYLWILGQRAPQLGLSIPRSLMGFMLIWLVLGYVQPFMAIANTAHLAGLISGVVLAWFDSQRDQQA
Text: as §1

[2] = molecular target: T4, Rhomboid domain-containing protein (Pyrococcus horikoshii (strain ATCC 700860 / DSM 12428 / JCM 9974 / NBRC 100139 / OT-3), UniProt O59166)
T4 sequence (O59166 whole entry): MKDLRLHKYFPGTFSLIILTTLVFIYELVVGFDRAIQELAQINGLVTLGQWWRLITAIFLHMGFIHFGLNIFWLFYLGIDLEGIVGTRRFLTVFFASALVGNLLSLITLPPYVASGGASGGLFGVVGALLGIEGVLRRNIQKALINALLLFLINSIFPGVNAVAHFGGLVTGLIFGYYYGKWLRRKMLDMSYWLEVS
Text: as §1

Rhomboid protease GlpG [3] = molecular target: T5, Rhomboid protease GlpG (Haemophilus influenzae, UniProt A0A2R3FW87)
T5 sequence (A0A2R3FW87 whole entry): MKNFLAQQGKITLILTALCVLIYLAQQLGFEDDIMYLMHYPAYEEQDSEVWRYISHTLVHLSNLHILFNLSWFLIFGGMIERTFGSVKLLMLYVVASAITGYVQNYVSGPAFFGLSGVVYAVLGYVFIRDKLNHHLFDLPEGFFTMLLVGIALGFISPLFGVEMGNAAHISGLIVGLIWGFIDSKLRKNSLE
Text: as §1

Rhomboid protease GlpG [4] = molecular target: T6, Rhomboid protease GlpG (Escherichia coli (strain K12), UniProt P09391)
T6 sequence (P09391 whole entry): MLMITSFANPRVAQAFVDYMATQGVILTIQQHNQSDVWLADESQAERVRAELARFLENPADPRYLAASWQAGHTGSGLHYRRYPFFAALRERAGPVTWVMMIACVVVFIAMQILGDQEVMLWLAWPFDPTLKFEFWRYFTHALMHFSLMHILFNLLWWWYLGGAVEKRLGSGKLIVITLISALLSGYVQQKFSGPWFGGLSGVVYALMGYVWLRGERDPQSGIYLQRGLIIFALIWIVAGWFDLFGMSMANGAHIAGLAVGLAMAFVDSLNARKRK
Text: as §1

[5] = molecular target: T7, Rhomboid domain-containing protein (Thermotoga maritima (strain ATCC 43589 / DSM 3109 / JCM 10099 / NBRC 100826 / MSB8), UniProt Q9WZ53)
T7 sequence (Q9WZ53 whole entry): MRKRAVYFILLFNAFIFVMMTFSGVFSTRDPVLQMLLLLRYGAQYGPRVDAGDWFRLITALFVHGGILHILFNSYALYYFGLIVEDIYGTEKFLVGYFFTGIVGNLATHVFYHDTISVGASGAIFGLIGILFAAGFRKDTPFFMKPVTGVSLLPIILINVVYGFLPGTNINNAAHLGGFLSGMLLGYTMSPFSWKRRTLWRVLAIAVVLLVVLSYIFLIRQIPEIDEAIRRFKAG
Text: as §1

[6] = molecular target: Rhomboid protease GluP [F193S,L370F,L379S,R499W] (Bacillus subtilis (strain 168), UniProt P54493, F193S/L370F/L379S/R499W)
Sequence of Rhomboid protease GluP [F193S,L370F,L379S,R499W] (P54493 whole entry F192S/L370F/L379S/R499W): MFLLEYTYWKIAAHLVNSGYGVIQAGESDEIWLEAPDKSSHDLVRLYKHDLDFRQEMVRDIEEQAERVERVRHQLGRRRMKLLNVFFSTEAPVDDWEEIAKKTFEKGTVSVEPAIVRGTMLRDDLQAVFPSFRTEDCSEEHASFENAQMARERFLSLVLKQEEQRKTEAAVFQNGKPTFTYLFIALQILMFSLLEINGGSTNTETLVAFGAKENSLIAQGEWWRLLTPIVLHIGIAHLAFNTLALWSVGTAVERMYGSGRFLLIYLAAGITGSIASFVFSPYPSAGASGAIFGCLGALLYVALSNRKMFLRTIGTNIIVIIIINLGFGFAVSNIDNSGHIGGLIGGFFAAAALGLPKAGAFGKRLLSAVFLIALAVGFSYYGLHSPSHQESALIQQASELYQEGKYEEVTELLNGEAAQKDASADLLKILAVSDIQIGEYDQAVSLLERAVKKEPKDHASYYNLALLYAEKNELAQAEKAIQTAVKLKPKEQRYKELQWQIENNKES
Text: as §1

[7] = molecular target: T8, Rhomboid-related protein 3 (Mus musculus, UniProt P58873)
T8 sequence (P58873 whole entry): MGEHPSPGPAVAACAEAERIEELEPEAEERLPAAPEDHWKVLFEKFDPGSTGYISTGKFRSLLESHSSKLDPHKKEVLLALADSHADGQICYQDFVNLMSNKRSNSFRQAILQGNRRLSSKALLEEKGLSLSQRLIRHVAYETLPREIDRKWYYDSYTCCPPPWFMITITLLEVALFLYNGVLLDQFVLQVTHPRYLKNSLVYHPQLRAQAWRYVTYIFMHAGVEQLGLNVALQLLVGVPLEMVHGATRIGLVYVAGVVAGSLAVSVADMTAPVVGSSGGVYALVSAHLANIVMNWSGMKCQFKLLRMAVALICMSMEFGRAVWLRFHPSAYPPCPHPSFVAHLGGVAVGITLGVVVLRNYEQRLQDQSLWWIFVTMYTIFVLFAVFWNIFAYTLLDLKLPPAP
Text: as §1

[8] = molecular target: T9, Rhomboid domain-containing protein (Aquifex aeolicus (strain VF5), UniProt O67346)
T9 sequence (O67346 whole entry): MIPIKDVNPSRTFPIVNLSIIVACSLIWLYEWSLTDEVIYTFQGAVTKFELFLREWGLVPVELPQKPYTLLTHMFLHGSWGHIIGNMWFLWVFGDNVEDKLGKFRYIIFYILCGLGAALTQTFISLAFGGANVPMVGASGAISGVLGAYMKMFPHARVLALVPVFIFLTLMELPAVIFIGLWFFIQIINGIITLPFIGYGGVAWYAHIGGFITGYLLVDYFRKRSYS
Text: as §1

[9] = molecular target: T10, AN1-type domain-containing protein (Archaeoglobus fulgidus (strain ATCC 49558 / DSM 4304 / JCM 9628 / NBRC 100126 / VC-16), UniProt O29251)
T10 sequence (O29251 whole entry): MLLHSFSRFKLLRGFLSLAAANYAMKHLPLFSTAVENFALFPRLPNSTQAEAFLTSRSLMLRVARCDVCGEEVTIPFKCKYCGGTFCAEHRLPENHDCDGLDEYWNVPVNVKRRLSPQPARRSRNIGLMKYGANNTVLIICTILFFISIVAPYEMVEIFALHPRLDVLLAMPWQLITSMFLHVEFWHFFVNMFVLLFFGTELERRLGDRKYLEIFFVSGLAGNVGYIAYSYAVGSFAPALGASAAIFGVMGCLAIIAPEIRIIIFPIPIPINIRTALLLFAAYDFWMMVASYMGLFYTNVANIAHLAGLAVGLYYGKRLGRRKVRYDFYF
Text: as §1

O=c1oc(Cl)c(Cl)c2ccccc12 showed an IC50 (Rhomboid protease AarA) of 10 µM, an IC50 [1] of 28 µM and an IC50 (GlpG protein) of 27 µM. The IC50 [2] was 16 µM, the IC50 (Rhomboid protease GlpG [3]) was 0.66 µM and the IC50 (Rhomboid protease GlpG [4]) was 19 µM. It also gave an IC50 [5] of 1 µM, an IC50 [6] of 4.1 µM and an IC50 [7] of 70 µM. The IC50 [8] was 1.1 µM and the IC50 [9] was 8.1 µM.
O=c1oc(OCCCCCc2ccccc2)c(Cl)c2ccc([N+](=O)[O-])cc12 [4‐Chloro‐7‐nitro‐3‐[(5‐phenylpentyl)oxy]isochromen‐1‐one (21)] gave an IC50 (Rhomboid protease AarA) of 10 µM, an IC50 [1] of 39 µM and an IC50 (GlpG protein) of 76 µM. For the same compound, the IC50 [2] was 25 µM, the IC50 (Rhomboid protease GlpG [3]) was 4.6 µM and the IC50 [5] was 28 µM. The IC50 [6] was 25 µM, the IC50 [7] was 24 µM and the IC50 [8] was 1.7 µM.
C#CCCC[C@@H]1OC(=O)[C@H]1CCCC [(4S)‐3‐butyl‐4‐(pent‐4‐yn‐1‐yl)oxetan‐2‐one (48)] gave an IC50 (Rhomboid protease GlpG [4]) of 44 µM and an IC50 [5] of 48 µM.
C#CCCC[C@@H]1OC(=O)[C@H]1c1cc(OC)c(OC)c(OC)c1 [(4S)‐4‐(pent‐4‐yn‐1‐yl)‐3‐(3,4,5‐trimethoxyphenyl)oxetan‐2‐one (45)] showed an IC50 (Rhomboid protease GlpG [3]) of 65 µM and an IC50 [9] of 5 µM.
C#CCCC[C@@H]1OC(=O)[C@H]1CCCCC [(4S)‐4‐(pent‐4‐yn‐1‐yl)‐3‐pentyloxetan‐2‐one (47)] was tested, and the IC50 [5] was 27 µM.
